System: 422866-222-R5-J1-PDC complex spheroids viability
Assay: Anticancer human tumor 422866-222-R5-J1-PDC patient-derived pancreatic adenocarcinoma cell line growth inhibition [RAS]
Conditions: for IC50: curve of first compound; for viability, T/C: stronger effect = lower value
Summary of the method: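 Agents were tested in combination matrices in half-log decrements from a top concentration at or near clinical Cmax (10 microM if undetermined). Targets were multi-cell spheroids of tumour lines plus HUVEC and MSC stromal cells.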
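Also: spheroids exposed to compounds for 7 days.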
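For viability, T/C in this document: 100% = DMSO vehicle control viability.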

C[C@@H](NC(=O)c1ncnc(N)c1Cl)c1ncc(C(=O)Nc2cc(C(F)(F)F)c(Cl)cn2)s1 + C=CC(=O)N1CCN(c2nc(OCC3CCCN3C)nc3c(F)c(-c4nc(N)cc(C)c4C(F)(F)F)c(Cl)cc23)C(C)C1
IC50 (second compound 0.00316 µM): < 31.6 nM | IC50 (second compound 0.01 µM): < 31.6 nM | IC50 (second compound 0.0316 µM): < 31.6 nM | IC50 (second compound 0.1 µM): < 31.6 nM | IC50 (second compound 0.316 µM): < 31.6 nM | IC50 (second compound 1 µM): < 31.6 nM | viability, T/C (second compound 0.00316 µM, first compound 0.0316 µM): 31.7% | viability, T/C (second compound 0.00316 µM, first compound 0.1 µM): 47.2% | viability, T/C (second compound 0.00316 µM, first compound 0.316 µM): 31.7% | viability, T/C (second compound 0.00316 µM, first compound 1 µM): 29% | viability, T/C (second compound 0.00316 µM, first compound 3.16 µM): 32% | viability, T/C (second compound 0.00316 µM, first compound 10 µM): 30.6% | viability, T/C (second compound 0.01 µM, first compound 0.0316 µM): 41.5% | viability, T/C (second compound 0.01 µM, first compound 0.1 µM): 32.2% | viability, T/C (second compound 0.01 µM, first compound 0.316 µM): 33.3% | viability, T/C (second compound 0.01 µM, first compound 1 µM): 29.2% | viability, T/C (second compound 0.01 µM, first compound 3.16 µM): 30% | viability, T/C (second compound 0.01 µM, first compound 10 µM): 28.9% | viability, T/C (second compound 0.0316 µM, first compound 0.0316 µM): 30.8% | viability, T/C (second compound 0.0316 µM, first compound 0.1 µM): 30.8% | viability, T/C (second compound 0.0316 µM, first compound 0.316 µM): 25.1% | viability, T/C (second compound 0.0316 µM, first compound 1 µM): 27.4% | viability, T/C (second compound 0.0316 µM, first compound 3.16 µM): 29.5% | viability, T/C (second compound 0.0316 µM, first compound 10 µM): 26.7% | viability, T/C (second compound 0.1 µM, first compound 0.0316 µM): 30.5% | viability, T/C (second compound 0.1 µM, first compound 0.1 µM): 25% | viability, T/C (second compound 0.1 µM, first compound 0.316 µM): 27.9% | viability, T/C (second compound 0.1 µM, first compound 1 µM): 30.3% | viability, T/C (second compound 0.1 µM, first compound 3.16 µM): 26.7% | viability, T/C (second compound 0.1 µM, first compound 10 µM): 30.5% | viability, T/C (second compound 0.316 µM, first compound 0.0316 µM): 28% | viability, T/C (second compound 0.316 µM, first compound 0.1 µM): 24.1% | viability, T/C (second compound 0.316 µM, first compound 0.316 µM): 27.6% | viability, T/C (second compound 0.316 µM, first compound 1 µM): 23.1% | viability, T/C (second compound 0.316 µM, first compound 3.16 µM): 28.6% | viability, T/C (second compound 0.316 µM, first compound 10 µM): 31.8% | viability, T/C (second compound 1 µM, first compound 0.0316 µM): 27.1% | viability, T/C (second compound 1 µM, first compound 0.1 µM): 29.4% | viability, T/C (second compound 1 µM, first compound 0.316 µM): 27.2% | viability, T/C (second compound 1 µM, first compound 1 µM): 30% | viability, T/C (second compound 1 µM, first compound 3.16 µM): 32.1% | viability, T/C (second compound 1 µM, first compound 10 µM): 29.4%

Reference: PubChem BioAssay AID2060901 (Molecular Pharmacology Branch, DTP, NCI, 2025)
